Reference: ChEMBL document CHEMBL4385643, “Design of a brain-penetrant CDK4/6 inhibitor for glioblastoma” (Bioorg Med Chem Lett, 2019)

Key:
[1] = molecular target: Dual specificity mitogen-activated protein kinase kinase 3 (Homo sapiens) (UniProt P46734); test: Inhibition of recombinant full length human GST-tagged MEK3 expressed in baculovirus expression system at 0.1 uM using serine/threonine-3 peptide as substrate incubated for 60 mins by Z'-LYTE assay relative to control
[2] = molecular target: Cyclin-dependent kinase 1/cyclin B1 (Homo sapiens) (UniProt P06493+P14635); details: at 0.1 µM
Description: Inhibition of recombinant full length human His-tagged CDK1/CyclinB expressed in baculovirus expression system at 0.1 uM using serine/threonine-18 peptide as substrate incubated for 60 mins by Z'-LYTE assay relative to control

[3] = Plasma to brain permeability coefficient, Kp of the compound in CD-1 mouse at 1.0 mg/kg, iv measured at 6 hrs post dose by LC/MS/MS analysis; type: ADME, organism-based
in vivo [4] = details: CD-1, mouse, blood, iv, 1 mg/kg
in vivo [5] = details: CD-1, mouse, po, 25 mg/kg
[6] = molecular target: CDK4/Cyclin D3 (Homo sapiens) (UniProt P11802+P30281); test: Inhibition of recombinant full length human GST-tagged CDK4/Cyclin D3 expressed in insect expression system at 0.1 uM using Rb peptide as substrate incubated for 60 mins by Adapta assay relative to control
in vivo [7] = details: CD-1, mouse, brain, po, 25 mg/kg
Description: Protein binding in CD-1 mouse brain at 25 mg/kg, po measured upto 6 hours by LC-MS/MS analysis

in vivo [8] = details: CD-1, mouse, iv, 1 mg/kg
Description: Volume of distribution at steady state in CD-1 mouse at 1.0 mg/kg, iv measured upto 6 hours by LC-MS/MS analysis

[9] = molecular target: Dual specificity protein kinase CLK1 (Homo sapiens) (UniProt P49759); test: Inhibition of recombinant human GST-tagged CLK1 catalytic domain (129 to 484 residues) expressed in Escherichia coli expression system at 0.1 uM using serine/threonine-9 peptide as substrate incubated for 60 mins by Z'-LYTE assay relative to control
[10] = molecular target: Dual specificity tyrosine-phosphorylation-regulated kinase 3 (Homo sapiens) (UniProt O43781); test: Inhibition of recombinant full length human GST-tagged DYRK3 expressed in baculovirus expression system at 0.1 uM using serine/threonine-9 peptide as substrate incubated for 60 mins by Z'-LYTE assay relative to control
in vivo [11] = details: CD-1, mouse, brain/plasma, iv, 1 mg/kg
Description: Plasma to brain permeability coefficient, Kp of the unbound compound in CD-1 mouse at 1.0 mg/kg, iv measured at 1 hr post dose by LC/MS/MS analysis

CDK4/Cyclin D3 = CDK4/Cyclin D3 (Homo sapiens, UniProt P11802)
Chain of CDK4/Cyclin D3 (P11802 whole entry): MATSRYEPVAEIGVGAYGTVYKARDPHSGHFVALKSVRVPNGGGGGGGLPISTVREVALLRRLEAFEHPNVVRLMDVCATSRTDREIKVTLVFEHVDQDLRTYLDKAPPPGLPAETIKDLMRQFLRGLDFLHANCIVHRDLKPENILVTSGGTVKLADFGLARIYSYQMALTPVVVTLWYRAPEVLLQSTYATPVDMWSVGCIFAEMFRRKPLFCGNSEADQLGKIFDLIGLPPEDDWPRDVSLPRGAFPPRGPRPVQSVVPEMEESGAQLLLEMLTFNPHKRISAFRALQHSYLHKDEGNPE
Chain of CDK4/Cyclin D3 (P30281 whole entry, further chain): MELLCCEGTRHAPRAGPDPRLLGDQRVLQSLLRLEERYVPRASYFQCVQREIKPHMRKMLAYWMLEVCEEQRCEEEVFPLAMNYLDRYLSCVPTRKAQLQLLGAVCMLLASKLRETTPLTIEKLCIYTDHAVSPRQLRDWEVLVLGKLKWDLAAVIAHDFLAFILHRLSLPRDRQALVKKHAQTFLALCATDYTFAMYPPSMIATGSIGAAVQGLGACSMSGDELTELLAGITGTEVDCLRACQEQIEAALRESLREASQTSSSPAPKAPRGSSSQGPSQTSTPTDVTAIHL
Description: Inhibition of human full length GST-tagged CDK4 (1 to 303(end) amino acids)/Cyclin D3 (1 to 292(end) amino acids) expressed in baculovirus expression system assessed as inhibition constant using Ulight-4E-BP1 as substrate preincubated for 30 mins followed by substrate addition and incubated for 90 mins by TR-FRET assay

Chain of Dual specificity protein kinase CLK1 (Homo sapiens) (P49759 whole entry, looked up, the tested form may be a part): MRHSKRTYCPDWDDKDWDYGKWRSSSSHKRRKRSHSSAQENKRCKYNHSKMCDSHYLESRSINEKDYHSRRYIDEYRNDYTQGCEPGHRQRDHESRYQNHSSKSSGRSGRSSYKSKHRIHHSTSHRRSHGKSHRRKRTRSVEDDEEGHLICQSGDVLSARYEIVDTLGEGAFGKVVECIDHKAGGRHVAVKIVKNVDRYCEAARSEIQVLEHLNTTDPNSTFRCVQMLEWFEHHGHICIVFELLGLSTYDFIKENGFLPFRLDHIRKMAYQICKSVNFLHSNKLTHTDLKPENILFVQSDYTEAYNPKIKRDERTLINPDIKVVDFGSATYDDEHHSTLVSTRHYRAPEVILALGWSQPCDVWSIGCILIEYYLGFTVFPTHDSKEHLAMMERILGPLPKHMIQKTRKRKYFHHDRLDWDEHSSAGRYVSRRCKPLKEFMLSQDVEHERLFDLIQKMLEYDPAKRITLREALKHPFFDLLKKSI
Chain of Dual specificity mitogen-activated protein kinase kinase 3 (Homo sapiens) (P46734 whole entry): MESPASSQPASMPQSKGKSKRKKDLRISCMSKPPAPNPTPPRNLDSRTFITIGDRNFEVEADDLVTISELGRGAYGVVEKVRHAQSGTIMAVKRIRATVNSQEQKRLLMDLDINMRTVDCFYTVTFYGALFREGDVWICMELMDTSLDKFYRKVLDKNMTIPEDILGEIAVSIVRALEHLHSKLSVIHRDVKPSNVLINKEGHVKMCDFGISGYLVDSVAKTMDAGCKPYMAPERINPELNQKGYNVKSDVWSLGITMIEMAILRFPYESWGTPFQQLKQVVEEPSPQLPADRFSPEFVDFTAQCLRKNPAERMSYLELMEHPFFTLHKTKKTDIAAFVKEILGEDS
Chain of Cyclin-dependent kinase 1/cyclin B1 (Homo sapiens) (P06493 whole entry, looked up): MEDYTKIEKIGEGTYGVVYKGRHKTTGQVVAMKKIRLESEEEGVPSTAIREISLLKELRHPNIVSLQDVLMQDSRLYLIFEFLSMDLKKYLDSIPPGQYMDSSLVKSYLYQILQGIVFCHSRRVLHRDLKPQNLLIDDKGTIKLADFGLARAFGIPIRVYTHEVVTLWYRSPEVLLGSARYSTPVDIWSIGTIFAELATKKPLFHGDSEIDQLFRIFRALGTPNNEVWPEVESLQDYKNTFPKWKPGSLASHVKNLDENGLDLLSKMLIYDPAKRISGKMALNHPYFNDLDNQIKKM
Chain of Cyclin-dependent kinase 1/cyclin B1 (Homo sapiens) (P14635 whole entry, looked up): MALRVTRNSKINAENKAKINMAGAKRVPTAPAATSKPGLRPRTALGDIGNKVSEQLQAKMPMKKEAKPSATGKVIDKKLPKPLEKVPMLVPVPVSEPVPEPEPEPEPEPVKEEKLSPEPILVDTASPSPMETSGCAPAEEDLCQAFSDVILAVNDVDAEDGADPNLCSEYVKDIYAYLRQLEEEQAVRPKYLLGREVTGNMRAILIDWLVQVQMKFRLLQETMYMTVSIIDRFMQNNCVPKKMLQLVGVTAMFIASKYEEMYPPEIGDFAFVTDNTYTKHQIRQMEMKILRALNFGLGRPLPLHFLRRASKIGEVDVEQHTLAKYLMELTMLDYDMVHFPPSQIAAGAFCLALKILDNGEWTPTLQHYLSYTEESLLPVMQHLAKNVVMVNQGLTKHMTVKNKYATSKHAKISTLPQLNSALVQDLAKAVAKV
Chain of Dual specificity tyrosine-phosphorylation-regulated kinase 3 (Homo sapiens) (O43781 whole entry): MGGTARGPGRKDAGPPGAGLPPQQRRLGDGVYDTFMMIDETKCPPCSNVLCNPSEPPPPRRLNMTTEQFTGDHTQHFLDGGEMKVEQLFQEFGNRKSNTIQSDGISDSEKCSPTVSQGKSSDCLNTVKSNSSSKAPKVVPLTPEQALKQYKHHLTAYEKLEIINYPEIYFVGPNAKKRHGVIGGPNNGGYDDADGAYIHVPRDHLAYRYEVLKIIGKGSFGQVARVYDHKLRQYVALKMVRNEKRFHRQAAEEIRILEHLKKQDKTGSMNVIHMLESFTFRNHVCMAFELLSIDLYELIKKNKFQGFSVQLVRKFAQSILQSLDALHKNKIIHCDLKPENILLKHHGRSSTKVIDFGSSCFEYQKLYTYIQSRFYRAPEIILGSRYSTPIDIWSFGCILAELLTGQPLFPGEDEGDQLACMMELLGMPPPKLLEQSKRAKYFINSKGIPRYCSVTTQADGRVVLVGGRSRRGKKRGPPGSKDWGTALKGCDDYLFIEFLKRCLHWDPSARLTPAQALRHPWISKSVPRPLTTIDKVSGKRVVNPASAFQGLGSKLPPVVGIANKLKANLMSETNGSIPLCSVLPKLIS

CCN1CCN(Cc2ccc(Nc3ncc(F)c(-c4cc(F)c5nc(C)n(C(C)C)c5c4)n3)nc2)CC1 [ABEMACICLIB]
inhibition [1]: 33.2%

CCN1CC2(C1)CN(c1ccc(Nc3ncc(F)c(-c4cnn5c4[C@H](C)CCCC5)n3)nc1)C2
inhibition [2]: 52.5% | Kp at 6 h [3]: 2.3 | clearance at 6 h (in vivo [4]): 96 mL/min/kg | bioavailability at 6 h (in vivo [5]): 23% | inhibition [6]: 88.5% | fraction unbound at 6 h (in vivo [7]): 0.009 | Vd at 6 h (in vivo [8]): 6.2 L/kg | inhibition [9]: 77.5% | inhibition [10]: 34% | Kp uu at 1 h (in vivo [11]): 0.59 | Ki (CDK4/Cyclin D3): < 0.3 nM
